Data taken from patent US4150120A, “Ophthalmic” (Takeda Chemical Industries, Ltd., priority 1977, dated 1979).
Structures can show the parent of a compound that is named as a salt. Where two headings read alike, the source gives them in different places.

Legend:
cataract (dogs) [1] = format: in vivo, dog
[2] = test system: progressive cataract (dogs); design: Evaluation: key to the marks not given beside the values; settings: for Relapse: diagnosed after 3 months
[3] = test system: acute conjunctivitis (dogs); assay: Treatment of acute conjunctivitis (dogs) by ophthalmic instillation of 0.01% TRH tartrate; format: in vivo, dog
Description: The following examples illustrate the treatment of a case of acute catarrhal conjunctivitis and a case of drug-induced acute conjunctivitis, by ophthalmic instillation of TRH alone.

cataract (dogs) [4] = format: in vivo, dog; remark: listed apart in the source
Method: 2, 1977. (Treatment) Starting on Feb. 28, 1977 opthalmic instillations of a 0.01% aqueous solution of free TRH were given 3 times a day. (Treatment) Starting on Aug. […] The right eye was treated simultaneously with the aqueous solution of TRH tartrate alone.

[5] = Case 3, left eye, with dexamethasone and flavine-adenine dinucleotide, August 20

Which pupillary reflex (cataract (dogs) [1]; Case 1, total cataract, 4 to 5 instillations daily from Feb. 2, on February 28) does the source give for `NC(=O)[C@@H]1CCCN1C(=O)[C@H](Cc1cnc[nH]1)NC(=O)[C@@H]1CCC(=O)N1` [TRH tartrate, L-pyroglutamyl-L-histidyl-L-prolinamide] here?
The pupillary reflex was “normal”.

And the “opacity of pupillary area” value (cataract (dogs) [1]; Case 1, on February 28)?
Its value is “reduced opacity”.

What about the “clarity of the cortex of lens (visual examination)” value (cataract (dogs) [1]; Case 1, on March 10) of the same compound?
Its value is “improved”.

And the “day on which responses were elicited (generally, seven cases)” value ([2]; 0.01% aqueous solution, 3 instillations a day, eye lids pressed after instillation)?
The value was “third”.

What about the “result of first course” value ([2]; Case 1, 2 instillations daily for 3 consecutive days, then discontinued) of the same compound?
Its value is “apparently satisfactory”.

What about the “outcome of the case” value ([2]; Cases 1 and 2, 0.01% solution, 2 instillations daily) of the same compound?
Its value is “judged to have been cured”.

And the Evaluation ([2]; case 7, serious total cataract (bilateral), 3 instillations daily for 4 days plus TRH.corson injections on 1st and 3rd days)?
Its Evaluation is “++”.

What about the Relapse ([2]; case 7, with adjunct TRH.corson injections) of the same compound?
Its Relapse is “None”.

And the Evaluation ([2]; case 9, transient central cataract due to traumatic corneitis (left eye), 2 instillations daily)?
The Evaluation was “+++”.

And the Relapse ([2]; cases 3-6 and 8)?
The Relapse was “None”.

And the “reaction after each instillation (irritation to the conjunctiva)” value ([2]; dog, in vivo)?
The value was “closed the lids for a while, followed by several blinkings”.

What about the “outcome of the case” value ([3]; Case 1, acute catarrhal conjunctivitis) of the same compound?
Its value is “judged to have been cured”.

What about the findings at examination ([3]; Case 1, acute catarrhal conjunctivitis, three instillations given every other day, 7th day after start) of the same compound?
The findings at examination was “neither a hyperemia nor overflowing tears”.

And the findings at examination ([3]; Case 2, acute conjunctivitis due to irritation by insecticide, 2 instillations given every other day)?
Its findings at examination is “the hyperemia had disappeared and the slightly dilated eye balls had become normal”.

What about the “outcome of the case” value ([3]; Case 2, drug-induced acute conjunctivitis) of the same compound?
The value was “cured”.

What about the “pannus, left eye” value (cataract (dogs) [4]; Case 3, left eye (immature cortical cataract and corneitis), with 0.02% dexamethasone and 0.05% flavine-adenine dinucleotide, 5 to 6 times daily, August 20) of the same compound?
The value was “the pannus had disappeared”.

And the “ciliary congestion, left eye” value (cataract (dogs) [4]; [5])?
Its value is “the ciliary congestion persisted”.

And the “pupillary reflex and dilation, left eye” value (cataract (dogs) [4]; [5])?
Its value is “satisfactory”.

And the “lens clarity, right eye” value (cataract (dogs) [4]; Case 3, right eye, TRH tartrate solution alone, 5 to 6 times daily, August 20)?
The value was “increased clarity in the upper margin of the lens”.

What about the “lens clarity, both eyes” value (cataract (dogs) [4]; Case 3, TRH tartrate solution alone from September 2, September 25) of the same compound?
Its value is “significantly increased clarity”.

What about the “lens opacity, both eyes” value (cataract (dogs) [4]; Case 3, TRH tartrate solution and dexamethasone solution twice daily, September 2) of the same compound?
Its value is “only thinned opacities all over the lens”.

What about the “side effect at the times of instillation” value (cataract (dogs) [4]; dog, in vivo) of the same compound?
Its value is “No side effect was noted”.

Which results are given for `NC(=O)[C@@H]1CCCN1C(=O)[C@H](Cc1cnc[nH]1)NC(=O)[C@@H]1CCC(=O)N1` [TRH, L-pyroglutamyl-L-histidyl-L-prolinamide]?
lens of right eye (cataract (dogs) [4]; Case 2, senile cataract, 0.01% aqueous solution of free TRH 3 times a day from Feb. 28, on April 23): the lens cortex of the right eye was remarkably clear; lens of left eye (cataract (dogs) [4]; Case 2, 0.01% free TRH 3 times a day, on April 23): the circumstances of lens in the left eye could be delineated; side effect during the instillation period (cataract (dogs) [4]; dog, in vivo): No side effect was observed
